Measurements from patent US12162935B2, “Regimens, compositions and methods with capsaicin and TNF-alpha inhibitor” (priority 2018, dated 2024).

Experiments:
[1] = test system: outer hair cells (OHCs); assay: Outer hair cell damage by SEM and whole mount hair cell count; format: in vivo, rat
Source text: Immediately after completion of post-treatment ABRs, rats were euthanized and their cochleae were harvested and the specimens processed as described previously by [Kamimura et al.]. Sputter-coated cochlea were viewed and photographed with a Hitachi S-500 scanning electron microscope (Hitachi Ltd.). The resulting scanning electron micrographs were examined to determine qualitative morphological characteristics in various regions including the basal, middle, and apical turns of the rat cochlea.
Two representative areas of the basal turn, middle turn, and apex and hook portion were photographed. In each area, outer hair cells (OHCs) were counted in an area that was 10 pillar cell heads in length. The results are presented as the percentage hair cell damage per cochlear turn. At least three cochleae from different animals per treatment group were used.
To study the organization of the outer hair cells and inner hair cells, the cochlear whole mount technique was used. The cochleae was fixed in fresh 4% paraformaldehyde overnight, and then decalcified in […] EDTA for 2 weeks, (pH 7.3) while stirring at room temperature for 2 weeks. After decalcification, the cochleae was microdissected into basal, middle, and apical turns for whole-mount preparation.
For further processing, segments were washed with 1×PBS twice for 5 mins. For blocking, the segments were incubated in 10% blocking serum (horse serum) for 3 hrs at room temperature. The segments were incubated with primary antibody in 0.2% Triton prepared in PBS and refrigerated overnight. The following day, the segments were washed in PBS (three washes) for 5 mins each wash. The segments were washed in secondary antibody for 2 hrs at room temperature in the dark. The antibodies were then washed with PBS (three washes). Glass coverslips were then mounted on the segments with ProLong Diamond Antifade Mountant (Thermo Fisher Scientific) and incubated them at room temperature overnight and then stored them in 4 degrees. Images were procured using a Leica confocal microscope (Buffalo Grove, IL).
For hair cell count in whole mount preparations, two to three random areas from the basal turn from each treatment group separately were selected. Hair cells were counted in […] segments of the cochlea respectively. Counts were averaged across treatment group. This was further normalized as % of PBS (control) by taking the values of control as 100%.

[2] = test system: Wistar rats; details: capsaicin TT 50 μl of 0.1 μM; Mukherjea et al., 2011; cited from earlier work
[3] = test system: Wistar rats; assay: Restoration of hearing after permanent threshold shifts (Example 10B); format: in vivo, rat; details: treatment after PTS at 4 weeks; oral capsaicin 5 mg/kg 3 days, ETA 1 mg/kg s.c. day 2, three weeks
Method: FIG. 23A is a schematic showing the experimental paradigm used in Example 10B. Pre-treatment baseline ABRs were performed in naïve male Wistar rats. The rats were then used either as sham controls (no noise exposure) or exposed-noise (122 dB, OBN centered at 16 kHz for 1 hour). Post noise exposure ABRs were repeated at 4 weeks to establish permanent threshold shifts (PTS). […] Final ABR threshold values were evaluated at week 9 post noise exposure.
Values shown in FIGS. 23A-23C and otherwise provided with respect to this Example 10B are expressed as the mean±SEM. Statistical significance was analyzed using the ANOVA and Tukey's host hoc analysis.

[4] = test system: Wistar rats; assay: ABR threshold shifts, cisplatin-induced hearing loss; format: in vivo, rat
Method: Adult male Wistar rats (200-350 g) (from Envigo) were used for this study. Rats were housed in a temperature controlled room with a twelve hour light/dark cycle. They had free access to commercial food and water provided by the SIU Laboratory Animal Care facility.
Prior to experiments, rats were anesthetized with ketamine HCl/xylazine mixture (24.6/3 mg/kg) and then placed in a sound-attenuation chamber (Industrial Acoustic Company, Inc.). Body temperature of the rats was maintained at 37° C. with an animal blanket system. Pretreatment auditory brainstem responses (ABRs) was performed using an IHS-High-frequency System (Intelligent Hearing Systems, Miami, FL). The rats were exposed to acoustic stimuli via HIS transducers that were directly placed at the entrance of the ear canal. ABR thresholds were obtained for 5 ms duration tone bursts at 8, 16 and 32 kHz at a rate of 50/s. Thresholds were determined by visually produced lowest intensity evoked potentials (EP) that progressed in 10 dB steps. Evoked potentials (Eps) were amplified to 200,000×, and were band pass filtered (100-3000 Hz) and averaged over 1024 sweeps [Mukherjea et al., 2010].
At the end of auditory testing, the anesthetized animals were decapitated and the cochlea harvested. The SIU Laboratory Animal Care and Use Committee approved all animal procedures.
Male Wistar rats were anesthetized using ketamine/xylazine cocktail. The tympanic membrane was punctured as described in [Mukherjea et al., 2010].

Which results are given for `COc1cc(CNC(=O)CCCC/C=C/C(C)C)ccc1O` [capsaicin, 8-methyl-N-vanillyl-trans-6-nonenamide]?
stereociliary damage induced by cisplatin ([1]; SEM, oral capsaicin): significantly reduced; loss of outer hair cells ([1]; SEM, trans-tympanic capsaicin pretreatment, cisplatin): no significant loss of outer hair cells; hair cell damage ([1]; whole mount, oral capsaicin alone): minimal hair cell damage; outer hair cell loss compared to control ([1]; whole mount, oral capsaicin prior to cisplatin): no significant outer hair cell loss; duration of transient ABR threshold shift [2]: 24 h; average hearing threshold shifts at 9 weeks [3]: 15-25 dB; ABR threshold shifts produced by cisplatin ([4]; TT-capsaicin 50 μl of 0.1 μM 24 h prior to cisplatin 11 mg/kg ip, 72 h, 8, 16 and 32 kHz): significantly reduced ABR threshold shifts; ABR thresholds ([4]; TT-capsaicin alone, 72 h, vs TT vehicle): did not significantly alter ABR thresholds; ABR threshold ([4]; capsaicin alone by trans-tympanic injection or oral gavage, 72 h): did not significantly alter ABR threshold; protection against cisplatin-induced ABR threshold shifts ([4]; oral capsaicin 5 mg/kg 24 h prior to cisplatin): did not protect; cisplatin ABR threshold shift ([4]; oral capsaicin 20 mg/kg 24 h prior to cisplatin (FIG. 11.B)): abrogated; protection against cisplatin-induced ABR threshold shifts ([4]; oral capsaicin 10 or 20 mg/kg 24 h prior to cisplatin): Significant protection
